One series deals with Gαi/q. As to the kind of experiment: In vitro nucleotide exchange (BODIPY-GTPγS fluorescence). The format is biochemical. The conditions noted are these: FIG. 2B.
Series [1] relates to Gαi/q(R54K). Described as above. The class given is biochemical. The note with it: Gαi/q(R54K) vs Gαi/q.
Series [2] has as its target T1, Gαi/q(R54K) (Homo sapiens, UniProt P63096, C351G, form not given).
T1 construct: […]
The class given is cell-based. The conditions noted are these: read-out: IC50, attenuation of cannabinoid type 1 receptor inhibition of forskolin-induced cAMP accumulation; via Gαi/q(R54K); Neuro2A cells; FIG. 2C.

For series [3], the system named is Gαi/q(R54K). The format is cell-based. The conditions noted are these: Gαi/q(R54K) vs Gαi/q.
The test system of series [4] is BRAF(V600E)-driven OCM-1A cells. The series is described as follows: IP1 accumulation in UM cells (IP-One kit). The format is cell-based, Human. The conditions noted are these: FIG. 3B. An excerpt: Inhibition of signaling by constitutively active Gαq in UM cultured cell lines was quantified by measuring intracellular inositol 1-phosphate (IP1), a metabolically stable product of inositol 1,4,5-trisphosphate produced by Gαq-stimulated phospholipase Cβ. FIG. 3A Basal IP1 levels in UM cell lines driven by constitutively active Gαq (92.1 and Mel202) and BRAF (OCM-1A). FIG. 3B Effects of FR on IP1 levels in 92.1, Mel202 and OCM-1A cells. *p<0.01.
A third UM cell line (OCM-1A) driven by constitutively active BRAF(V600E) served as a negative control. Signaling by Gαq-stimulated phospholipase Cβ was quantified based on levels of inositol monophosphate (IP1), a metabolically stable product of inositol 1,4,5-trisphosphate (IP3) produced by cleavage of phosphatidylinositol 4,5-bisphosphate (PIP2). […] FR reduced IP1 levels in Mel202 and 92.1 cells >50-fold (FIG. 3B), but had only modest effect (˜2-fold) on OCM-1A cells (FIG. 3B).
Accumulation of IP1 in UM cells was measured using the IP-One kit (CiSbio, Inc; catalog number 62IPAPEB) according to the supplier's instructions. 10,000 Mel 202 cells, 20,000 92.1 cells and 20,000 OCM 1A cells were seeded into white-bottom tissue culture grade 384-well plates. Following an overnight incubation, cells were treated with FR or DMSO and returned to the incubator. […] Plates were read in a Synergy H4 Hybred Reader (BioTek, Winooski, Vt., USA). […]

Another series concerns 92.1 cells. The series is described as follows: Melanocytic re-differentiation (morphology, pigmentation, immunostaining). The class given is cell-based, Human. The protocol:
FIG. 5A Morphological changes elicited by FR. UM cell lines were treated 3 d with FR and imaged by phase contrast microscopy. FR caused UM cells driven by constitutively active Gαq (92.1 and Mel202) to lose their characteristic spindle shaped and assume a stellate shape with multiple projections. FR had no effect on BRAF-driven UM cells (OCM-1A). FIG. 5B Melanocytic differentiation of FR-treated UM cells indicated by pigmentation. UM cell lines were treated 3 d with FR. Cells were pelleted and examined macroscopically. […] Scale bar=50 μm.
Gαq-mutant 92.1 UM cells were treated with FR or vehicle, and RNA was collected 1 and 3 d after treatment for RNA-Seq analysis. FIG. 7A Unsupervised principal component analysis identified FR treatment and time in culture as the two main separable factors contributing to changes in gene expression. […] FIG. 7D FR-repressed genes identified as targets of the polycomb repressive complex 2 by Geneset enrichment analysis. FIG. 7E The Ezh1/2 inhibitor GSK503 blocks the morphological differentiation elicited by FR. 92.1 UM cells were treated 7 d with GSK503 and 3 d with FR and then imaged by phase contrast microscopy. […] 92.1 cells were treated 7 d with GSK503 and 3 d with FR and pelleted. FIG. 7G PRC2 inhibition by GSK503.
Cell fixation was carried out by adding an equal volume of 2×fixative (PBS with 4% paraformaldehyde and 0.4% glutaraldehyde) to UM cells in RPMI growth medium. After 15 min at 37° C., cells were permeabilized with 0.1% Triton X-100 in PBS for 5 min, washed with PBS, and blocked with 2% fish gelatin (Sigma-Aldrich) in PBS. Primary and secondary antibodies were diluted in 2% fish gelatin in PBS. Primary antibodies included mouse monoclonal anti-pre-melanosomal protein (One World Lab, San Diego, Calif.), rabbit polyclonal anti-tyrosinase (One World Lab), rabbit polyclonal anti-dopachrome tautomerase (One World Lab), rabbit polyclonal anti-S100 (DakoCytomation, Denmark), and mouse monoclonal anti-BrdU (Life Technologies). Secondary antibodies were Alexa-fluor conjugates (Life Technologies), and the mounting agent was ProLong Gold (Life Technologies). Cell morphology was assessed by phase contrast imaging with an inverted microscope (Olympus IX72) using a 10×objective.

The nature of series [5]: Retina structure (preliminary data). An excerpt: In this example we will determine whether FR has potential to provide vision sparing therapy for primary (ocular) UM tumors. […] Based on our preliminary studies of UM cells in culture, intravitreal injection might be therapeutically beneficial by inhibiting tumor growth, promoting apoptosis, and/or pushing tumor re-differentiation toward melanocytic phenotypes less likely to metastasize. […] Our second priority is to determine whether FR administered systemically could provide therapeutic benefit for metastatic UM tumors.

Data on one molecule can be found in patent publication US20230130103A1, “TARGETED PHARMACOLOGICAL THERAPEUTICS IN UVEAL MELANOMA” (Washington University, priority 2017, published 2023).

Structures are written as SMILES. Starred links: 1 amine or outer side, 2 acyl side, 3 side chain; linkers in the order of their positions; H or OH if unused. Positions of bridges follow the written chain, without caps; N, C: chain ends. Non-standard residues stand in square brackets, D forms with d. Residues, ends and D or L forms follow the SMILES beside them. *: point of attachment. Leu(3R-OH,Nα-propionyl) = CCC(=O)N[C@H](C(=O)*)[C@H](O)C(C)C; X1 = CC(C)[C@@H](O[*:3])[C@H](N[*:1])C(=O)[*:2]; X2 = CC(C)[C@H](O[*:3])[C@@H](N[*:1])C(=O)[*:2]; NMeaThr = CN[C@H](C(=O)O)[C@H](C)O; dPhLac = O=C(O)[C@H](O)Cc1ccccc1; NMeA = CN[C@@H](C)C(=O)O; NMeDha = C=C(NC)C(=O)O

T1 sequence (P63096 whole entry V50I/Y69F/V72L/K180P/V185I/T187Y/H188P/C351G, form open): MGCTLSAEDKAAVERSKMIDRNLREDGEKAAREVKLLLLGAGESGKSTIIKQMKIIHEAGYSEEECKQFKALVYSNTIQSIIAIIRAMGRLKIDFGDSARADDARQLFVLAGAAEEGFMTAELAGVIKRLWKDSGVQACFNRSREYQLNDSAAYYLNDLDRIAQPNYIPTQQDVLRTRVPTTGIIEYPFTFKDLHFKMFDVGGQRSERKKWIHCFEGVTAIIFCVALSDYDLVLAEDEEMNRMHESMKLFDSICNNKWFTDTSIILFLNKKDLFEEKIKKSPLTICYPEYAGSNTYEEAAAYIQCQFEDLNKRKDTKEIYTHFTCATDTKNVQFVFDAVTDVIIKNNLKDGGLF

As usually defined, the IC50 is the concentration that inhibits the measured activity by half. Consider `C=C1C(=O)N[C@@H](C)C(=O)N(C)[C@@H](C)C(=O)N[C@H]([C@@H](OC(=O)[C@@H](NC(=O)CC)[C@H](O)C(C)C)C(C)C)C(=O)N(C)[C@@H]([C@H](C)OC)C(=O)O[C@H](C(C)C)[C@H](NC(C)=O)C(=O)O[C@H](Cc2ccccc2)C(=O)N1C` [FR, [(1S)-1-[(3S,6R,9S,12S,18R,21S,22R)-21-acetamido-18-benzyl-3-[(1S)-1-methoxyethyl]-4,9,10,12,16-pentamethyl-15-methylidene-2,5,8,11,14,17,20-heptaoxo-22-propan-2-yl-1,19-dioxa-4,7,10,13,16-pentazacyclodocos-6-yl]-2-methylpropyl] (2S,3R)-3-hydroxy-4-methyl-2-(propanoylamino)pentanoate] (Ac-[X1][dPhLac][NMeDha]A[NMeA][X2](Leu(3R-OH,Nα-propionyl))[NMeaThr](Me); ester 1-C), for which, in the series with Gαi/q, the “in vitro nucleotide exchange” value is listed as “inhibited”. Moreover, the “fold less potent than toward Gαi/q, nucleotide exchange” value in the series on Gαi/q(R54K) [1] is listed as roughly 10 fold. Also, the IC50 on Gαi/q(R54K) [2] is roughly 800 nM. In addition, the “fold less potent than toward Gαi/q, cAMP signaling” value with Gαi/q(R54K) [3] was roughly 30 fold. The “effect on IP1 levels” value in series [4] is reported as roughly 2 fold. The “cell morphology (phase contrast)” value in the series on 92.1 cells (3 d FR, FIG. 5A) is recorded as “morphological changes indicative of re-differentiation”. For the same molecule, the melanocytic pigmentation result in the series on 92.1 cells (3 d FR, FIG. 5B) is recorded as “strikingly increased”. In addition, the “expression levels of TYR, DCT and PMEL (immunofluorescence)” value in the series with 92.1 cells (FIG. 5C) is given as “increased”. Moreover, in series [5], the retina structure entry is reported as “preserves retina structure”.
